Assay results: patent publication EP4707280A1, “1,4-CINEOLE DERIVATIVE AND INTERMEDIATE THEREOF, HERBICIDE CONTAINING SAID DERIVATIVE AS ACTIVE INGREDIENT, METHOD FOR USING HERBICIDE, AND METHOD FOR PREPARING AGROCHEMICAL COMPOSITION” (HOKKO CHEMICAL INDUSTRY CO., LTD., priority 2023, dated 2024)

Experiments:
Type in all cases: in vivo
[1] = tested on: Echinochloa crus-galli var. formosensis; assay: Test Example 6: herbicidal effect test by application during growth period of paddy rice (low dose); settings: Echinochloa crus-galli; 7.5 g per 10 ares; applied seven days after sowing, flooded pots; 14 days after application; read-out: weed inhibition rate
Summary of the method: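 Low-dose water application, 7.5 g a.i. per 10 ares, given by dropper into flooded pots (about 3 cm depth) 7 days after sowing of 30 weed seeds each at 0–1 cm. Evaluation of inhibition (%) took place 14 days later, duplicate per rate.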

Digitaria ciliaris [2] = assay: Test Example 7: herbicidal effect test by soil application in upland field (low dose); settings: Digitaria ciliaris, 7.5 g per 10 ares, sprayed one day after sowing, 14 days after application, read-out: weed inhibition rate
Summary of the method: (§1)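 Upland alluvial loam pots, seeds mixed into top 1 cm of soil; one day after sowing, diluted emulsifiable concentrate sprayed on soil at 100 L/10 a, giving 7.5 g active ingredient/10 a. Duplicate pots; weed inhibition rate (%) scored 14 days after application.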

Echinochloa crus-galli [3] = assay: as above; settings: Echinochloa crus-galli, 7.5 g per 10 ares, sprayed one day after sowing, 14 days after application, read-out: weed inhibition rate
Summary of the method: as §1

[4] = tested on: Echinochloa crus-galli var. formosensis; assay: Test Example 1: herbicidal effect test by soil application in paddy rice; settings: Echinochloa crus-galli, soil, 336 h; 120 g active ingredient per 10 ares; applied immediately after sowing, flooded pots; 14 days after application; read-out: weed inhibition rate
Summary of the method: (§2)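 Soil-applied test under flooded paddy conditions (~3 cm water) in a glass greenhouse. Seeds were sown shallow (0–1 cm, 30 per species), then compound was dripped in as diluted emulsifiable concentrate at 120 g a.i./10 a.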

Scirpus juncoides [5] = assay: as above; settings: Schoenoplectiella juncoides, soil, 336 h; 120 g active ingredient per 10 ares; applied immediately after sowing, flooded pots; 14 days after application; read-out: weed inhibition rate
Summary of the method: as §2

Digitaria ciliaris [6] = assay: Test Example 3: herbicidal effect test by soil application in upland field; settings: Digitaria ciliaris, 120 g per 10 ares, sprayed one day after sowing, 14 days after application, read-out: weed inhibition rate
Summary of the method: (§3)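 Pre-emergence test: seeds mixed into top 1 cm of alluvial loam upland soil in pots; emulsifiable concentrate diluted in water sprayed on soil one day after sowing at 100 L/10 a, 120 g a.i./10 a. Weed inhibition rate (%) scored at 14 days, in duplicate.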

Echinochloa crus-galli [7] = assay: as above; settings: Echinochloa crus-galli, 120 g per 10 ares, sprayed one day after sowing, 14 days after application, read-out: weed inhibition rate
Summary of the method: as §3

Digitaria ciliaris [8] = assay: Test Example 4: herbicidal effect test by stem and leaf treatment in upland field; settings: Digitaria ciliaris; 120 g per 10 ares; sprayed seven days after sowing, upland soil; 14 days after application; read-out: weed inhibition rate
[9] = tested on: Echinochloa crus-galli var. formosensis; assay: Test Example 2: herbicidal effect test by application during growth period of paddy rice; settings: Echinochloa crus-galli; 120 g per 10 ares; applied seven days after sowing, flooded pots; 14 days after application; read-out: weed inhibition rate
Summary of the method: (§4)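 Paddy soil in flooded pots (water depth about 3 cm) was sown with weed seeds and kept in a glass greenhouse. Seven days after sowing, a diluted emulsifiable concentrate was applied by dropper at 120 g active ingredient per 10 ares. Weed inhibition was evaluated 14 days after application, in duplicate.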

Scirpus juncoides [10] = assay: as above; settings: Schoenoplectiella juncoides; 120 g per 10 ares; applied seven days after sowing, flooded pots; 14 days after application; read-out: weed inhibition rate
Summary of the method: as §4

Digitaria ciliaris [11] = assay: Test Example 8: herbicidal effect test by stem and leaf treatment in upland field (low dose); settings: Digitaria ciliaris; 7.5 g per 10 ares; sprayed seven days after sowing, upland soil; 14 days after application; read-out: weed inhibition rate
Echinochloa crus-galli [12] = assay: as above; settings: Echinochloa crus-galli; 7.5 g per 10 ares; sprayed seven days after sowing, upland soil; 14 days after application; read-out: weed inhibition rate
[13] = tested on: Echinochloa crus-galli var. formosensis; assay: Test Example 5: herbicidal effect test by soil application in paddy rice (low dose); settings: Echinochloa crus-galli, soil, 336 h; 7.5 g per 10 ares; applied immediately after sowing, flooded pots; 14 days after application; read-out: weed inhibition rate
Summary of the method: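 Paddy-soil pots, weeds sown 0–1 cm deep and flooded to about 3 cm in a greenhouse. Emulsifiable concentrate diluted in water and dropped in right after sowing at 7.5 g active ingredient per 10 ares. Duplicates; effect scored 14 days after application.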

Echinochloa crus-galli [14] = assay: Test Example 4: herbicidal effect test by stem and leaf treatment in upland field; settings: Echinochloa crus-galli; 120 g per 10 ares; sprayed seven days after sowing, upland soil; 14 days after application; read-out: weed inhibition rate

CC(C)C12C=CC(C)(O1)C(OCc1cccs1)C2 (stereo not drawn) [3-756, 1-isopropyl-4-methyl-5-(2-thienylmethoxy)-7-oxabicyclo[2.2.1]hept-2-ene]
≥ 80%: inhibition at 75 g/ha [1] | inhibition at 75 g/ha (Digitaria ciliaris [2]) | inhibition at 75 g/ha (Echinochloa crus-galli [3]) | pest or weed control at 1200 g/ha [4] | pest or weed control at 1200 g/ha (Scirpus juncoides [5]) | inhibition at 1200 g/ha (Digitaria ciliaris [6]) | inhibition at 1200 g/ha (Echinochloa crus-galli [7]) | inhibition at 1200 g/ha (Digitaria ciliaris [8]) | inhibition at 1200 g/ha [9] | inhibition at 1200 g/ha (Scirpus juncoides [10]) | inhibition at 75 g/ha (Digitaria ciliaris [11]) | inhibition at 75 g/ha (Echinochloa crus-galli [12]) | inhibition at 75 g/ha [13] | inhibition at 1200 g/ha (Echinochloa crus-galli [14])

CC(C)[C@]12C[C@@H](OCc3ccccn3)[C@](C)(C[C@@H]1Cl)O2 [1-658, 2-[[(1S,2R,4R,5S)-5-chloro-4-isopropyl-1-methyl-7-oxabicyclo[2.2.1]heptan-2-yl]oxymethyl]pyridine]
≥ 80%: inhibition at 75 g/ha [1] | inhibition at 75 g/ha (Digitaria ciliaris [2]) | inhibition at 75 g/ha (Echinochloa crus-galli [3]) | pest or weed control at 1200 g/ha [4] | pest or weed control at 1200 g/ha (Scirpus juncoides [5]) | inhibition at 1200 g/ha (Digitaria ciliaris [6]) | inhibition at 1200 g/ha (Echinochloa crus-galli [7]) | inhibition at 1200 g/ha (Digitaria ciliaris [8]) | inhibition at 1200 g/ha [9] | inhibition at 1200 g/ha (Scirpus juncoides [10]) | inhibition at 75 g/ha (Digitaria ciliaris [11]) | inhibition at 75 g/ha (Echinochloa crus-galli [12]) | inhibition at 75 g/ha [13] | inhibition at 1200 g/ha (Echinochloa crus-galli [14])

Cc1cccc(C)c1CO[C@@H]1C[C@]2(C(C)C)O[C@@]1(C)C[C@@H]2I [1-777, (1R,2S,4S,5R)-5-[(2,6-dimethylphenyl)methoxy]-2-iodo-1-isopropyl-4-methyl-7-oxabicyclo[2.2.1]heptane]
≥ 80%: inhibition at 75 g/ha [1] | inhibition at 75 g/ha (Digitaria ciliaris [2]) | inhibition at 75 g/ha (Echinochloa crus-galli [3]) | pest or weed control at 1200 g/ha [4] | pest or weed control at 1200 g/ha (Scirpus juncoides [5]) | inhibition at 1200 g/ha (Digitaria ciliaris [6]) | inhibition at 1200 g/ha (Echinochloa crus-galli [7]) | inhibition at 1200 g/ha (Digitaria ciliaris [8]) | inhibition at 1200 g/ha [9] | inhibition at 1200 g/ha (Scirpus juncoides [10]) | inhibition at 75 g/ha (Digitaria ciliaris [11]) | inhibition at 75 g/ha (Echinochloa crus-galli [12]) | inhibition at 75 g/ha [13] | inhibition at 1200 g/ha (Echinochloa crus-galli [14])

CC(C)[C@@]12C[C@H](OCc3c(F)cccc3F)[C@@](C)(C[C@H]1I)O2 [1-1119, (1R,2S,4S,5R)-2-[(2,6-difluorophenyl)methoxy]-5-iodo-1-methyl-4-isopropyl-7-oxabicyclo[2.2.1]heptane]
≥ 80%: inhibition at 75 g/ha [1] | inhibition at 75 g/ha (Digitaria ciliaris [2]) | inhibition at 75 g/ha (Echinochloa crus-galli [3]) | pest or weed control at 1200 g/ha [4] | pest or weed control at 1200 g/ha (Scirpus juncoides [5]) | inhibition at 1200 g/ha (Digitaria ciliaris [6]) | inhibition at 1200 g/ha (Echinochloa crus-galli [7]) | inhibition at 1200 g/ha (Digitaria ciliaris [8]) | inhibition at 1200 g/ha [9] | inhibition at 1200 g/ha (Scirpus juncoides [10]) | inhibition at 75 g/ha (Digitaria ciliaris [11]) | inhibition at 75 g/ha (Echinochloa crus-galli [12]) | inhibition at 75 g/ha [13] | inhibition at 1200 g/ha (Echinochloa crus-galli [14])

CC(C)C12CC(OCc3ccccc3Br)C(C)(CC1Cl)O2 (stereo not drawn) [1-1295, 2-[(2-bromophenyl)methoxy]-5-chloro-1-methyl-4-isopropyl-7-oxabicyclo[2.2.1]heptane]
≥ 80%: inhibition at 75 g/ha [1] | inhibition at 75 g/ha (Digitaria ciliaris [2]) | inhibition at 75 g/ha (Echinochloa crus-galli [3]) | pest or weed control at 1200 g/ha [4] | pest or weed control at 1200 g/ha (Scirpus juncoides [5]) | inhibition at 1200 g/ha (Digitaria ciliaris [6]) | inhibition at 1200 g/ha (Echinochloa crus-galli [7]) | inhibition at 1200 g/ha (Digitaria ciliaris [8]) | inhibition at 1200 g/ha [9] | inhibition at 1200 g/ha (Scirpus juncoides [10]) | inhibition at 75 g/ha (Digitaria ciliaris [11]) | inhibition at 75 g/ha (Echinochloa crus-galli [12]) | inhibition at 75 g/ha [13] | inhibition at 1200 g/ha (Echinochloa crus-galli [14])

CC(C)[C@]12C[C@@H](OCc3c(F)cccc3F)[C@](C)(C[C@@H]1Cl)O2 [1-14, (1R,2S,4S,5R)-2-chloro-5-[(2,6-difluorophenyl)methoxy]-1-isopropyl-4-methyl-7-oxabicyclo[2.2.1]heptane]
≥ 80%: inhibition at 75 g/ha [1] | inhibition at 75 g/ha (Digitaria ciliaris [2]) | inhibition at 75 g/ha (Echinochloa crus-galli [3]) | pest or weed control at 1200 g/ha [4] | pest or weed control at 1200 g/ha (Scirpus juncoides [5]) | inhibition at 1200 g/ha (Digitaria ciliaris [6]) | inhibition at 1200 g/ha (Echinochloa crus-galli [7]) | inhibition at 1200 g/ha (Digitaria ciliaris [8]) | inhibition at 1200 g/ha [9] | inhibition at 1200 g/ha (Scirpus juncoides [10]) | inhibition at 75 g/ha (Digitaria ciliaris [11]) | inhibition at 75 g/ha (Echinochloa crus-galli [12]) | inhibition at 75 g/ha [13] | inhibition at 1200 g/ha (Echinochloa crus-galli [14])

CC(C)C12CC(OCc3c(F)cccc3Br)C(C)(CC1Cl)O2 (stereo not drawn) [1-1611, 2-[(2-bromo-6-fluorophenyl)methoxy]-5-chloro-1-methyl-4-isopropyl-7-oxabicyclo[2.2.1]heptane]
≥ 80%: inhibition at 75 g/ha [1] | inhibition at 75 g/ha (Digitaria ciliaris [2]) | inhibition at 75 g/ha (Echinochloa crus-galli [3]) | pest or weed control at 1200 g/ha [4] | pest or weed control at 1200 g/ha (Scirpus juncoides [5]) | inhibition at 1200 g/ha (Digitaria ciliaris [6]) | inhibition at 1200 g/ha (Echinochloa crus-galli [7]) | inhibition at 1200 g/ha (Digitaria ciliaris [8]) | inhibition at 1200 g/ha [9] | inhibition at 1200 g/ha (Scirpus juncoides [10]) | inhibition at 75 g/ha (Digitaria ciliaris [11]) | inhibition at 75 g/ha (Echinochloa crus-galli [12]) | inhibition at 75 g/ha [13] | inhibition at 1200 g/ha (Echinochloa crus-galli [14])

CC(C)[C@]12C=C[C@](C)(O1)[C@H](OCC1CCCCC1)C2 [3-697, (1R,4S,5R)-5-(cyclohexylmethoxy)-1-isopropyl-4-methyl-7-oxabicyclo[2.2.1]hept-2-ene]
≥ 80%: inhibition at 75 g/ha [1] | inhibition at 75 g/ha (Digitaria ciliaris [2]) | inhibition at 75 g/ha (Echinochloa crus-galli [3]) | pest or weed control at 1200 g/ha [4] | pest or weed control at 1200 g/ha (Scirpus juncoides [5]) | inhibition at 1200 g/ha (Digitaria ciliaris [6]) | inhibition at 1200 g/ha (Echinochloa crus-galli [7]) | inhibition at 1200 g/ha (Digitaria ciliaris [8]) | inhibition at 1200 g/ha [9] | inhibition at 1200 g/ha (Scirpus juncoides [10]) | inhibition at 75 g/ha (Digitaria ciliaris [11]) | inhibition at 75 g/ha (Echinochloa crus-galli [12]) | inhibition at 75 g/ha [13] | inhibition at 1200 g/ha (Echinochloa crus-galli [14])

CC(C)[C@]12C[C@@H](OCc3ccccc3Cl)[C@](C)(C[C@@H]1I)O2 [1-756, (1R,2S,4S,5R)-5-[(2-chlorophenyl)methoxy]-2-iodo-1-isopropyl-4-methyl-7-oxabicyclo[2.2.1]heptane]
≥ 80%: inhibition at 75 g/ha [1] | inhibition at 75 g/ha (Digitaria ciliaris [2]) | inhibition at 75 g/ha (Echinochloa crus-galli [3]) | pest or weed control at 1200 g/ha [4] | pest or weed control at 1200 g/ha (Scirpus juncoides [5]) | inhibition at 1200 g/ha (Digitaria ciliaris [6]) | inhibition at 1200 g/ha (Echinochloa crus-galli [7]) | inhibition at 1200 g/ha (Digitaria ciliaris [8]) | inhibition at 1200 g/ha [9] | inhibition at 1200 g/ha (Scirpus juncoides [10]) | inhibition at 75 g/ha (Digitaria ciliaris [11]) | inhibition at 75 g/ha (Echinochloa crus-galli [12]) | inhibition at 75 g/ha [13] | inhibition at 1200 g/ha (Echinochloa crus-galli [14])
